We go through 15 molecules from patent EP2439195B1, “NAPHTHALENE CARBOXAMIDE DERIVATIVES AS INHIBITORS OF PROTEIN KINASE AND HISTONE DEACETYLASE, PREPARATION METHODS AND USES THEREOF” (Shenzhen Chipscreen Biosciences, Ltd., priority 2009, dated 2010).

One test has as its system Class I HDAC. The experiment in a line: HDAC subtype selectivity reporter gene assay (P21 reporter, HeLa cells). The test is classed as cell-based. The settings on record: Homo sapiens; 10µM; HeLa cells, 24 hours; read-out: Class I HDAC (P21 reporter assay) Fold Induction at 10µM. As to the method:
Different HDAC subtypes can bind with different transcriptional factors and involve in expression regulation of various genes. Suitable regulation elements for transcriptional factors are selected to construct reporter genes, which can be used to evaluate the selective inhibition of inhibors on HDAC subtypes. Briefly, HeLa cells were seeded in 96-well plates the day before transfection to give a confluence of 50-80% when transfection. Cells were transfected with one of reporter gene plasmid containing a p21-promoter sequence or response element upstream of a luciferase gene construct using FuGene6 transfection reagent according to the manufacturer's instruction (Roche). For normalizing the transfection efficiency, a GFP expression plasmid was cotransfected. After 24 hours compounds or the vehicle control (DMSO) were added. 24 hours later the cells were harvested and lysed, and the amount of the luciferase was evaluated using luciferase assay kits (Promega) according to the manufacturer's instructions.

In the next test the test system is A-498. The experiment in a line: Tumor cell proliferation (MTS), A-498. The test is classed as cell-based. The settings on record: Homo sapiens, A498; A-498, 72 hours; read-out: Gl50 µM in A-498. As to the method:
(§1) Tumor cells were trypsinized and plated into 96-well plates at 3,000 per well and incubated in complete medium with 10% FBS for 24 hours. Compounds to be tested and vehicle control were added, and the final concentration of compound is in the range of 100 nmol/L to 100 µmol/L. The compounds were incubated for 72 hours in complete medium. The MTS reagent (Promega) was added according to the instruction, incubated for 2 hours at 37°C in CO2 incubator. Then absorbance at 490nm is read using an ELISA plate reader.

Another test relates to A549. The experiment in a line: Tumor cell proliferation (MTS), A549. The test is classed as cell-based. The note with it: Homo sapiens; A549, 72 hours; read-out: Gl50 µM in A549. As to the method: as §1
The subject of another test is Bel-7402. The experiment in a line: Tumor cell proliferation (MTS), Bel-7402. The test is classed as cell-based. The note with it: Homo sapiens; Bel-7402, 72 hours; read-out: Gl50 µM in Bel-7402. As to the method:
as §1

The next test relates to HCT-8. The experiment in a line: Tumor cell proliferation (MTS), HCT-8. The test is classed as cell-based. The note with it: Homo sapiens; HCT-8, 72 hours; read-out: Gl50 µM in HCT-8. As to the method: as §1
The next test deals with MCF-7. The experiment in a line: Tumor cell proliferation (MTS), MCF-7. The test is classed as cell-based. The note with it: Homo sapiens, MCF7; MCF-7, 72 hours; read-out: Gl50 µM in MCF-7. As to the method: as §1
For another test, the target named is T1, human PDGFRβ (Homo sapiens, UniProt P09619).
T1 construct: expressed in transfected cells
T1 sequence (P09619 33-1106): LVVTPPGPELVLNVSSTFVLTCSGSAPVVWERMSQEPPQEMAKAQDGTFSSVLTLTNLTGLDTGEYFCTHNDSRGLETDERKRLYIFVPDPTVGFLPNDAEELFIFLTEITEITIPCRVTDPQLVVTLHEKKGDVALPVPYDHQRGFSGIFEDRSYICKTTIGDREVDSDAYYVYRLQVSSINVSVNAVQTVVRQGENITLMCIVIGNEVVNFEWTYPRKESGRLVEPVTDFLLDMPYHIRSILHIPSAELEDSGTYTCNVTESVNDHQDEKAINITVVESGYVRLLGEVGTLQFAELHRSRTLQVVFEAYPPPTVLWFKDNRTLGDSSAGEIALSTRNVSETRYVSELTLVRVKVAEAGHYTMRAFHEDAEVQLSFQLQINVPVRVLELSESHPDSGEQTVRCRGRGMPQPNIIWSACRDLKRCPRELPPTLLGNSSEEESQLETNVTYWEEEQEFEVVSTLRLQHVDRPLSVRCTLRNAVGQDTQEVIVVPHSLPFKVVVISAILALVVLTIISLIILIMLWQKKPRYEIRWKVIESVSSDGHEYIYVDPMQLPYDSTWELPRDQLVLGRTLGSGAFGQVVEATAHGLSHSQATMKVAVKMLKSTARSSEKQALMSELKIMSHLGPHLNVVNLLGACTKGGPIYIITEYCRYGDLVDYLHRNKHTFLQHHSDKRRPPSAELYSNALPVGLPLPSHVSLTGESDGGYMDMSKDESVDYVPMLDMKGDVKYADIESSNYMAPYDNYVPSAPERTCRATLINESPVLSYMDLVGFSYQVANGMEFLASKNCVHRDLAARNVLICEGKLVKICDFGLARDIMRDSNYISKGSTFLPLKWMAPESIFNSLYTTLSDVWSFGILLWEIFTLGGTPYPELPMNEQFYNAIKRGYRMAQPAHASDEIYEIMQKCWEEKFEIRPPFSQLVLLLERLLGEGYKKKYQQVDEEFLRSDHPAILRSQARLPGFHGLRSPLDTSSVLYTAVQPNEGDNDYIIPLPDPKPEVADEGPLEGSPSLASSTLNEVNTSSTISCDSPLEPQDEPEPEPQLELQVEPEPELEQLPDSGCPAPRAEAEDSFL
The experiment in a line: PDGF dependent cell proliferation (MTS). The settings on record: PDGFRβ NIH-3T3 cells, PDGF BB (50ng/ml), 72 hours, serum-free medium; read-out: Gl50 nM (PDGF ligand-dependent cell proliferation). The test is classed as cell-based. As to the method: NIH-3T3 mouse fibroblasts cell line engineered to stably express human PDGFRβ was constructed and used to evaluate PDGF dependent cell proliferation. PDGFRβ NIH-3T3 cells were plated into 96-well plates at 5,000 per well and incubated overnight with serum-free medium after 24 hours. Compounds to be tested and PDGF BB (50ng/ml) were added and incubated for 72 hours in serum-free medium. The effects on proliferation were determined by MTS method (Promega) according to the instruction. Incubation was performed for 2 hours at 37°C in CO2 incubator, and absorbance at 490nm was measured using an ELISA plate reader.

In the next test the test system is HUVEC cells. The experiment in a line: VEGF dependent cell proliferation (MTS). The test is classed as cell-based. The settings on record: Homo sapiens, VEGF 165 (50ng/ml), 72 hours, serum-free medium, read-out: Gl50 nM (VEGF ligand-dependent cell proliferation). As to the method:
HUVEC cells were plated into 96-well plates at 6,000 per well and after 24 hours incubated with serum-free medium for 2 hours. Compounds to be tested and VEGF 165 (50ng/ml) were added and incubated for 72 hours in serum-free medium. The effects on cell proliferation were determined by MTS method (Promega) according to the instruction. Incubation was performed for 2 hours at 37°C in CO2 incubator, and absorbance at 490nm was determined using an ELISA plate reader.

In a further test the test system is total HDAC enzyme. The experiment in a line: In vitro total HDAC enzyme activity (HDAC Fluorimetric Assay/Drug Discovery Kit, HeLa cell nuclear extract). The test is classed as biochemical. As to the method: The in vitro total HDAC enzyme activity was determined by HDAC Fluorimetric Assay/Drug Discovery Kit (BIOMOL) according to manufacture's instruction. The principle of the experiment is as follows: under the action of histone deacetylase (in the experiment, HeLa cell nuclear extract, which was rich in a variety of subtypes of HDAC, was used), an acetyl group is removed from a special substrate Fluor de Lys, thus the free amino is exposed. Upon Developer is added, the substrate will produce fluorescence. For the fluorescence, excitation wavelength is 360nm, and emission wavelength is 460nm. More fully the substrate deacetylated, more higher the fluorescence induced. In the absence of inhibitors, the fluorescence value is taken as the control; when inhibitor is existed, fluorescence value induced will be reduced, while in the case no enzyme is existed (corresponding to the completely inhibition of enzyme activity) the fluorescence value is blank. Generally, after suppression the fluorescence values will be between the control and blank. When analysis is made, blank will be used as 0, and the control will be used as 1. Smaller value means higher inhibitory activity. 1. Add Assay buffer, diluted trichostatin A and test inhibitor to appropriate wells of the microtiter plate. Following table lists the amounts used for each regent of various assay types.
2. Add diluted HeLa nucleoprotein extract to all wells except those that are marked as "blank". 3. Allow diluted Fluor de Lys™ Substrate and the samples in the microtiter plate to equilibrate to 25°C. 4. Initiate HDAC reactions by adding diluted substrate (25 µl) to each well and mixing thoroughly. 5. Allow reactions to proceed for 30 minutes and then stop them by addition of Fluor de Lys™ Developer (50 µl). Incubate plate at room temperature (25°C) for 10-15 min. 6. Read fluorescence of samples on a microtiter-plate reading fluorimeter at a excitation wavelength of 369 nm and a emitted wavelength of 451 nm.

On to `Nc1cc(F)ccc1NC(=O)c1ccc(CNC(=O)/C=C/c2cccnc2)cc1` [CS055, Chidamide, reference compound], for which the fold induction at 10 µM in the test on Class I HDAC turned out to be 33. For the same molecule, the IC50 in the test with A-498 was 12.1 µM; in the test with A549 it was 11.2 µM; in the test with Bel-7402 it was 18.9 µM; in the test with HCT-8 it was 7.71 µM; in the test with MCF-7, 3.87 µM.
Consider `COc1cc2ncnc(Oc3ccc4c(C(=O)Nc5ccccc5N)cccc4c3)c2cc1OC` [Compound 16, N-(2-aminophenyl)-6-(6,7-dimethoxyquinazolin-4-yloxy)-1-naphthamide], for which the IC50 on human PDGFRβ came out at 0.048 µM; in the test with HUVEC cells, 0.003 µM; in the test on A-498 it was 30 µM; with A549 it was 30 µM; in the test on Bel-7402, 30 µM; in the test with HCT-8, 12.3 µM. For the same molecule, the IC50 in the test with MCF-7 was found to be 30 µM. Further, the “% inhibition of total HDAC enzyme activity at 30µM” value (“% inhibition” below) in the test on total HDAC enzyme is 8.6%. Besides, the fold induction at 10 µM in the test with Class I HDAC was 1.3.
Regarding `COc1cc2ncnc(Oc3ccc4c(C(=O)Nc5ccc(F)cc5N)cccc4c3)c2cc1OC` [Compound 17, N-(2-amino-4-fluorophenyl)-6-(6,7-dimethoxyquinazolin-4-yloxy)-1-naphthamide], the IC50 was determined as 0.04 µM at human PDGFRβ; 0.003 µM with HUVEC cells; 30 µM in the test with A-498; 30 µM in the test on A549; 30 µM in the test on Bel-7402; 3 µM with HCT-8. Moreover, the IC50 with MCF-7 is 30 µM. Besides, the “% inhibition” value in the test with total HDAC enzyme worked out at 22.5%. Moreover, in the test with Class I HDAC, the fold induction at 10 µM was found to be 1.1.
As for `COc1cc2ncnc(Oc3ccc4c(C(=O)Nc5ccc(C)cc5N)cccc4c3)c2cc1OC` [Compound 18, N-(2-amino-4-methylphenyl)-6-(6,7-dimethoxyquinazolin-4-yloxy)-1-naphthamide], the IC50 came to 0.015 µM at human PDGFRβ and 0.007 µM in the test with HUVEC cells. For the same molecule, the “% inhibition” value in the test on total HDAC enzyme worked out at 17.1%. Also, the fold induction at 10 µM in the test with Class I HDAC came to 1.1.
On to `COc1ccc(NC(=O)c2cccc3cc(Oc4ncnc5cc(OC)c(OC)cc45)ccc23)c(N)c1` [Compound 19, N-(2-amino-4-methoxyphenyl)-6-(6,7-dimethoxyquinazolin-4-yloxy)-1-naphthamide], for which the IC50 at human PDGFRβ was found to be 0.011 µM; in the test with HUVEC cells it was 0.023 µM. Besides, the “% inhibition” value in the test on total HDAC enzyme is 21.9%. Besides, the fold induction at 10 µM with Class I HDAC was 1.4.
The corresponding values for `COc1cc2ncnc(Oc3ccc4c(C(=O)Nc5ccc(Cl)cc5N)cccc4c3)c2cc1OC` [Compound 20, N-(2-amino-4-chlorophenyl)-6-(6,7-dimethoxyquinazolin-4-yloxy)-1-naphthamide] are 0.023 µM, 0.006 µM, 21.9% and 1.5.
The corresponding values for `COc1cc2ncnc(Oc3ccc4c(C(=O)Nc5ccc(Br)cc5N)cccc4c3)c2cc1OC` [Compound 21, N-(2-amino-4-bromophenyl)-6-(6,7-dimethoxyquinazolin-4-yloxy)-1-naphthamide] are 0.019 µM, 0.005 µM, 18.6% and 1.1.
For `COc1cc2ncnc(Oc3ccc4c(C(=O)Nc5ccc(C(F)(F)F)cc5N)cccc4c3)c2cc1OC` [Compound 22, N-(2-amino-4-trifluoromethylphenyl)-6-(6,7-dimethoxyquinazolin-4-yloxy)-1-naphthamide], in that order: 0.372 µM, 0.003 µM, 17% and 1.1.
On to `COc1cc2ncnc(Oc3ccc4c(C(=O)NCc5ccc(C(=O)Nc6ccccc6N)cc5)cccc4c3)c2cc1OC` [Compound 23, N-(4-((2-aminophenyl)carbamoyl)benzyl)-6-(6,7-dimethoxyquinazolin-4-yloxy)-1-naphthamide], for which the IC50 was 0.148 µM on human PDGFRβ; 0.018 µM in the test on HUVEC cells; 14.7 µM in the test on A-498; 30 µM with A549; 30 µM in the test with Bel-7402; 5.7 µM with HCT-8. Moreover, the IC50 with MCF-7 amounted to 4.3 µM. Further, the “% inhibition” value in the test on total HDAC enzyme worked out at 49.4%. Further, in the test with Class I HDAC, the fold induction at 10 µM was 11.3.
On to `Nc1ccccc1NC(=O)c1cccc2cc(Oc3ccnc4ccccc34)ccc12` [Compound 39, N-(2-aminophenyl)-6-(quinolin-4-yloxy)-1-naphthamide], for which the values for the IC50 on human PDGFRβ and in the test on HUVEC cells were 0.032 µM and 0.107 µM, respectively. Also, the “% inhibition” value with total HDAC enzyme was 15.9%. Further, the fold induction at 10 µM in the test with Class I HDAC came out at 1.2.
`Cc1cccc2c(Oc3ccc4c(C(=O)Nc5ccccc5N)cccc4c3)ccnc12` [Compound 40, N-(2-aminophenyl)-6-(8-methylquinolin-4-yloxy)-1-naphthamide]: in the test with HUVEC cells, the IC50 was 1 µM. Moreover, in the test on total HDAC enzyme, the “% inhibition” value amounted to 22.2%. For the same molecule, in the test on Class I HDAC, the fold induction at 10 µM was found to be 1.3.
`Nc1ccccc1NC(=O)c1cccc2cc(Oc3ccnc4cc(Cl)ccc34)ccc12` [Compound 41, N-(2-aminophenyl)-6-(7-chloroquinolin-4-yloxy)-1-naphthamide]: the values for the IC50 on human PDGFRβ and in the test with HUVEC cells were 0.479 µM and 0.105 µM, respectively. In the test with total HDAC enzyme, the “% inhibition” value amounted to 19.3%. Also, in the test with Class I HDAC, the fold induction at 10 µM came to 1.1.
As to `Nc1ccccc1NC(=O)c1cccc2cc(Oc3ccnc4c(C(F)(F)F)cccc34)ccc12` [Compound 42, N-(2-aminophenyl)-6-(8-trifluoromethylquinolin-4-yloxy)-1-naphthamide], the IC50 at human PDGFRβ worked out at 0.048 µM; in the test with HUVEC cells it was 1 µM. Also, the “% inhibition” value in the test on total HDAC enzyme turned out to be 6.2%. Further, the fold induction at 10 µM in the test on Class I HDAC was 1.3.
Regarding `Nc1ccccc1NC(=O)c1ccc(CNC(=O)c2cccc3cc(Oc4ccnc5cc(Cl)ccc45)ccc23)cc1` [Compound 43, N-(4-((2-aminophenyl)carbamoyl)benzyl)-6-(7-chloroquinolin-4-yloxy)-1-naphthamide], the IC50 in the test with HUVEC cells stood at 0.288 µM. The “% inhibition” value in the test on total HDAC enzyme is on record as 38.7%. Further, the fold induction at 10 µM in the test with Class I HDAC stood at 6.1.
The corresponding values for `Nc1ccccc1NC(=O)c1ccc(CNC(=O)c2cccc3cc(Oc4ccnc5c(C(F)(F)F)cccc45)ccc23)cc1` [Compound 44] are 1 µM, 35.1% and 3.2.
